From paper PMC11589570, “Critical assessment of LC3/GABARAP ligands used for degrader development and ligandability of LC3/GABARAP binding pockets” (Nature Communications, 2024)
Where “and” joins values, the source holds several entries; their conditions need not be identical. Equal entries are not always repeated.

What was measured:
LC3A = LC3A (Homo sapiens, UniProt Q9H492); test: FP assay with Cy5-labelled p62 LIR tracer (protein titration and tracer displacement); format: binding; conditions: for normalized FP signal, p62 LIR tracer displacement: LC3A
LC3B = LC3B (Homo sapiens, UniProt Q9GZQ8); test: as above; format: binding; conditions: for normalized FP signal, p62 LIR tracer displacement: LC3B; for compound titration LC3B (displacement curve, FP signal): two replicate columns per compound
U2OS cells = test: Cell growth assay (IncuCyte confluence over 72 h); format: cell-based; design: key to U2OS cell growth: % of well area covered by cells (confluence)
Method in brief: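 U2OS cells were grown in DMEM with 10% FBS for 24 h before treatment. Confluence was then tracked by IncuCyte phase imaging over 72 h and expressed as % of well area covered by cells. Each point is the average of three wells.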

[1] = tested on: RPE-1 GFP-LC3B-RPF-LC3∆G reporter cell line; test: Autophagy flux assay; format: cell-based; conditions: rebuttal letter
From the text: LC3/GABARAP in vitro, but no attempts are made to replicate the previously reported cellular activity of these compounds. It would be beneficial to know whether these compounds have any effect on autophagy in the authors’ hands, and therefore could act by alternative mechanisms, or whether they […]
Response: We were very concerned that the ligands used for ATTEC development might induce general toxicity in cell lines, as they are based on drugs used in oncology (such as the kinesin inhibitor 10O5) and the isoxazole scaffold often used in the development of multi-targeted kinase inhibitors. However, we have now investigated compounds 1-4 in autophagy flux assays using the RPE-1 GFP-LC3B-RPF-LC3∆G reporter cell line (single clone) as […]
reported in [PMID:37558952].
(RR_Figure 6). The authors of the first manuscript reporting these ligands [PMID: 31666698]
However, due to the potent activity of 8F20 on KIF11, which will have profound effects on cell trafficking and growth, and DCAF11 (AN1, [PMID: 38036533]), we find it unlikely that the effects on autophagy are due to LC3/GABARAP modulation. Due to the lack of target (LC3/GABARAP) binding in vitro and the […]
of this review but have excluded the data in the manuscript.
RR_figure 5: Autophagy flux measurement for 10O5 and AN2. No induction of autophagy or effects (right panels, assessed by Incucyte (Sartorius) life cell imaging) on cell growth was […]
RR_figure 6: Autophagy flux measurement for 8F20 and AN1 show changes in autophagy flux […]
It is not clear how many biological replicates have been performed. For example, the figure legends […]

[2] = log10 concentration [M] -3.82391
[3] = log10 concentration [M] -4.60206
[4] = log10 concentration [M] -5.30103
[5] = log10 concentration [M] -6.22185
[6] = log10 concentration [M] -4.1549
[7] = log10 concentration [M] -5.69897
[8] = log10 concentration [M] -6.69897
[9] = log10 concentration [M] -7.30103
[10] = log10 concentration [M] -7.79588
[11] = log10 concentration [M] -8.08092

In the case of `O=C1Nc2ccc(I)cc2C1=Cc1cc(Br)c(O)c(Br)c1` [compound 4], the “normalized FP signal, p62 LIR tracer displacement” value (from here on “normalized FP signal”) (LC3A; [2]) was 89.4737, the “normalized FP signal” value (LC3A; log10 concentration [M] -3.82391, listed as 10O5) was 75.5263 and the “normalized FP signal” value (LC3A; log10 concentration [M] -4.1549, listed as 10O5) was 82.8947 and 95. The “normalized FP signal” value (LC3A; [3]) was 100.526, the “normalized FP signal” value (LC3A; log10 concentration [M] -4.60206, listed as 10O5) was 87.3684 and the “normalized FP signal” value (LC3A; log10 concentration [M] -5) was 94.4737. For the same compound, the “normalized FP signal” value (LC3A; log10 concentration [M] -5, listed as 10O5) was 88.6842, the “normalized FP signal” value (LC3A; [4]) was 95.7895 and the “normalized FP signal” value (LC3A; log10 concentration [M] -5.69897, listed as 10O5) was 88.1579 and 98.6842. The “normalized FP signal” value (LC3A; [5]) was 93.1579, the “normalized FP signal” value (LC3A; log10 concentration [M] -6.22185, listed as 10O5) was 102.368 and the “normalized FP signal” value (LC3A; log10 concentration [M] -6.69897, listed as 10O5) was 99.4737 and 97.6316. The “normalized FP signal” value (LC3A; log10 concentration [M] -7.30103, listed as 10O5) was 97.6316 and 100, the “normalized FP signal” value (LC3A; log10 concentration [M] -7.79588, listed as 10O5) was 98.6842 and 98.1579 and the “normalized FP signal” value (LC3A; log10 concentration [M] -8.08092, listed as 10O5) was 98.9474 and 105.263. For the same compound, the “compound titration LC3A (displacement curve, FP signal)” value (LC3A; log10 concentration [M] -5.30103, two replicate columns per compound) was 95.7895, the “normalized FP signal” value (LC3B; [2]) was 84.7368 and the “normalized FP signal” value (LC3B; [6]) was 89.2105. The “normalized FP signal” value (LC3B; [3]) was 90.7895, the “normalized FP signal” value (LC3B; log10 concentration [M] -5) was 95 and the “normalized FP signal” value (LC3B; [4]) was 93.9474 and 101.579. For the same compound, the “normalized FP signal” value (LC3B; [7]) was 91.0526, the “normalized FP signal” value (LC3B; [5]) was 96.5789 and the “normalized FP signal” value (LC3B; [8]) was 94.2105 and 95.5263. For the same compound, the “normalized FP signal” value (LC3B; [9]) was 96.3158 and 90.2632, the “normalized FP signal” value (LC3B; [10]) was 96.5789 and the “normalized FP signal” value (LC3B; [11]) was 96.0526 and 95.2632. For the same compound, the “compound titration LC3B (displacement curve, FP signal)” value (“compound titration LC3B” for short) (LC3B; [2]) was 84.7368 and 89.4737, the “compound titration LC3B” value (LC3B; [6]) was 89.4737 and 89.2105 and the “compound titration LC3B” value (LC3B; [3]) was 90.7895 and 93.1579. The “compound titration LC3B” value (LC3B; log10 concentration [M] -5) was 95 and 100.526, the “compound titration LC3B” value (LC3B; [4]) was 93.9474 and 101.579 and the “compound titration LC3B” value (LC3B; [7]) was 91.0526. The “compound titration LC3B” value (LC3B; [5]) was 96.5789 and 94.4737, the “compound titration LC3B” value (LC3B; [8]) was 94.2105 and 95.5263 and the “compound titration LC3B” value (LC3B; [9]) was 96.3158 and 90.2632. The “compound titration LC3B” value (LC3B; [10]) was 93.1579 and 96.5789, the “compound titration LC3B” value (LC3B; [11]) was 96.0526 and 95.2632 and the U2OS cell growth (U2OS cells; 100 nM, time 0 h, listed as 10O5) was 16.9992 and 15.7304 and 22.471. For the same compound, the U2OS cell growth (U2OS cells; 100 nM, time 2 h, listed as 10O5) was 30.0536 and 23.3693 and 30.9556, the U2OS cell growth (U2OS cells; 100 nM, time 4 h, listed as 10O5) was 26.8783 and 18.0548 and 26.389 and the U2OS cell growth (U2OS cells; 100 nM, time 6 h, listed as 10O5) was 32.427 and 24.5344 and 29.4691. For the same compound, the U2OS cell growth (U2OS cells; 500 nM, time 0 h, listed as 10O5) was 22.1626 and 25.7214 and 24.1436, the U2OS cell growth (U2OS cells; 500 nM, time 2 h, listed as 10O5) was 30.4879 and 29.4429 and 31.5602 and the U2OS cell growth (U2OS cells; 500 nM, time 4 h, listed as 10O5) was 27.0048 and 26.6361 and 29.202. For the same compound, the U2OS cell growth (U2OS cells; 500 nM, time 6 h, listed as 10O5) was 26.7875 and 33.8054 and 33.8287, the U2OS cell growth (U2OS cells; 500 nM, time 8 h) was 33.7413 and the U2OS cell growth (U2OS cells; 500 nM, time 10 h) was 39.0222. The U2OS cell growth (U2OS cells; 1 uM, time 0 h, listed as 10O5) was 28.8978 and 24.3384 and 24.2638, the U2OS cell growth (U2OS cells; 1 uM, time 2 h, listed as 10O5) was 33.9341 and 25.1214 and 23.3142 and the U2OS cell growth (U2OS cells; 1 uM, time 4 h, listed as 10O5) was 34.8975 and 25.1189 and 23.4121. The U2OS cell growth (U2OS cells; 1 uM, time 6 h, listed as 10O5) was 36.2035 and 30.6761 and 30.4629, the U2OS cell growth (U2OS cells; 1 uM, time 8 h, listed as 10O5) was 37.0589 and 28.0551 and 29.5538 and the U2OS cell growth (U2OS cells; 1 uM, time 10 h, listed as 10O5) was 40.6527 and 32.3336 and 34.2928. For the same compound, the U2OS cell growth (U2OS cells; 1 uM, time 12 h, listed as 10O5) was 39.0418, the U2OS cell growth (U2OS cells; 3 uM, time 0 h, listed as 10O5) was 28.8395 and 29.1487 and 34.5356 and the U2OS cell growth (U2OS cells; 3 uM, time 2 h, listed as 10O5) was 33.8786 and 32.6567 and 36.3335. For the same compound, the U2OS cell growth (U2OS cells; 3 uM, time 4 h, listed as 10O5) was 28.2335 and 26.3394 and 40.569, the U2OS cell growth (U2OS cells; 3 uM, time 6 h, listed as 10O5) was 37.1398 and 33.8156 and 39.1483 and the U2OS cell growth (U2OS cells; 3 uM, time 8 h, listed as 10O5) was 34.9068 and 36.3207 and 39.5562. The U2OS cell growth (U2OS cells; 3 uM, time 10 h, listed as 10O5) was 41.312 and 42.3386 and 42.5694, the U2OS cell growth (U2OS cells; 3 uM, time 12 h, listed as 10O5) was 40.1427 and the U2OS cell growth (U2OS cells; 5 uM, time 0 h, listed as 10O5) was 31.0558 and 26.3625 and 29.5321. The U2OS cell growth (U2OS cells; 5 uM, time 2 h, listed as 10O5) was 36.0354 and 28.3396 and 34.1005, the U2OS cell growth (U2OS cells; 5 uM, time 4 h, listed as 10O5) was 37.417 and 32.4374 and 40.4577 and the U2OS cell growth (U2OS cells; 5 uM, time 6 h, listed as 10O5) was 38.4528 and 33.2156 and 39.1806. For the same compound, the U2OS cell growth (U2OS cells; 5 uM, time 8 h, listed as 10O5) was 37.3748 and 33.0274 and 39.2246, the U2OS cell growth (U2OS cells; 5 uM, time 10 h, listed as 10O5) was 41.1433 and 35.6497 and 45.4152 and the U2OS cell growth (U2OS cells; 10 uM, time 0 h, listed as 10O5) was 20.3118 and 28.5412 and 26.4263. For the same compound, the U2OS cell growth (U2OS cells; 10 uM, time 2 h, listed as 10O5) was 23.006 and 27.9929 and 32.8968, the U2OS cell growth (U2OS cells; 10 uM, time 4 h, listed as 10O5) was 30.6648 and 35.9437 and 41.1141 and the U2OS cell growth (U2OS cells; 10 uM, time 6 h, listed as 10O5) was 29.7401 and 38.8973 and 43.1309. For the same compound, the U2OS cell growth (U2OS cells; 10 uM, time 8 h, listed as 10O5) was 28.0658 and 36.5966 and 41.861, the U2OS cell growth (U2OS cells; 10 uM, time 10 h, listed as 10O5) was 30.9876 and 40.5217 and 49.4843 and the “autophagy induction (autophagy flux)” value [1] was “did not induce autophagy”. The “effects on cell growth (Incucyte life cell imaging)” value [1] was “No induction of autophagy or effects”.
